Experiments:
[1] = target: T1, NDPK1 recombinant protein (AtNDPK1) (Arabidopsis thaliana, UniProt P39207); test: coupled pyruvate kinase-lactate dehydrogenase assay, NADH at […] nm; type: biochemical; settings: inhibitor; 500 uM cGMP; ATP and 4 mM TDP as substrates
T1 construct: gene NDK1; recombinant protein from commercial supplier (MyBioSource)
T1 sequence (P39207 1-149): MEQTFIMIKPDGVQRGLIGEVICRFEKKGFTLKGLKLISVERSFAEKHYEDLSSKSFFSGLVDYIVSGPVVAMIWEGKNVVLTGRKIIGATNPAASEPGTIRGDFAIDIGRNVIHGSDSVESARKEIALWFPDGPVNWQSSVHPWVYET

[2] = target: T1, NDPK1 recombinant protein (AtNDPK1); test: as above; type: biochemical; settings: phosphate acceptor, ATP as donor; 4 mM TDP

specific activity, % of control at 500 uM [1] [%] | Structure (SMILES) | coupled pyruvate kinase-lactate dehydrogenase assay, NADH at 340 nm [2]
51 | Nc1nc2c(ncn2[C@@H]2O[C@@H]3COP(=O)(O)O[C@H]3[C@H]2O)c(=O)[nH]1 [3',5'-cGMP] | –
– | Cc1cn([C@H]2C[C@H](O)[C@@H](COP(=O)(O)OP(=O)(O)O)O2)c(=O)[nH]c1=O [TDP] | TDP was used as a NDPK1 substrate and phosphate group acceptor
